Assay results reported in patent US7741495B2, “Indoline-sulfonamides compounds” (Taipei Medical University, priority 2006, dated 2010).
Structures can show the parent of a compound that is named as a salt.

Row | Compound | melting point
1 | COc1ccc(S(=O)(=O)N2CCc3cccc(NC(=O)c4ccncc4)c32)cc1 (as salt: HCl) [compound 26, N-[1-(4-Methoxy-benzenesulfonyl)-2,3-dihydro-1H-indol-7-yl]-isonicotin amide] | 219 to 220 °C
2 | COc1ccc(S(=O)(=O)N2CCc3cccc(NC(=O)c4ccc(F)cc4)c32)cc1 [compound 21, 4-Fluoro-N-[1-(4-methoxy-benzenesulfonyl)-2,3-dihydro-1H-indol-7-yl]-benzamide] | 184 to 185 °C
3 | COc1ccc(S(=O)(=O)N2CCc3cccc(NS(=O)(=O)c4ccccc4)c32)cc1 [compound 29, N-[1-(4-Methoxy-benzenesulfonyl)-2,3-dihydro-1H-indol-7-yl]-benzenesulfonamide] | 143 to 145 °C
4 | COc1ccc(S(=O)(=O)N2CCc3cccc(NC(=O)c4ccc(C#N)cc4)c32)cc1 [compound 23, 4-Cyano-N-[1-(4-methoxy-benzenesulfonyl)-2,3-dihydro-1H-indol-7-yl]-benzamide] | 179 to 180 °C
5 | COc1ccc(S(=O)(=O)N2CCc3cccc(NC(=O)c4ccccc4)c32)cc1 [compound 20, N-[1-(4-Methoxy-benzenesulfonyl)-2,3-dihydro-1H-indol-7-yl]-benzamide] | 205 to 206 °C
6 | COc1ccc(S(=O)(=O)N2CCc3cccc(NC(=O)Oc4ccccc4)c32)cc1 | 164 to 166 °C
7 | COc1ccc(S(=O)(=O)N2CCc3cccc(NC(=O)c4ccc([N+](=O)[O-])cc4)c32)cc1 [compound 22, N-[1-(4-Methoxy-benzenesulfonyl)-2,3-dihydro-1H-indol-7-yl]-4-nitro-benzamide] | 151 to 152 °C
8 | COc1ccc(S(=O)(=O)N2CCc3cccc(NC(=O)c4cccs4)c32)cc1 [compound 28, Thiophene-2-carboxylic acid [1-(4-methoxy-benzenesulfonyl)-2,3-dihydro-1H-indol-7-yl]-amide] | 188 to 189 °C
9 | COc1ccc(S(=O)(=O)N2CCc3cccc(NC(=O)c4ccco4)c32)cc1 [compound 27, Furan-2-carboxylic acid [1-(4-methoxy-benzenesulfonyl)-2,3-dihydro-1H-indol-7-yl]-amide] | 163 to 164 °C

Now from value to compound:

Row | melting point | Compound
10 | 104 to 105 °C | COc1ccc(S(=O)(=O)N2CCc3cccc(NS(=O)(=O)c4ccc(F)cc4)c32)cc1 [compound 31, 4-Fluoro-N-[1-(4-methoxy-benzenesulfonyl)-2,3-dihydro-1H-indol-7-yl]-benzenesulfonamide]
11 | 170 to 171 °C | COc1ccc(S(=O)(=O)N2CCc3cc(Br)cc(NC(=O)c4ccco4)c32)cc1 [compound 38, Furan-2-carboxylic acid [5-bromo-1-(4-methoxy-benzenesulfonyl) -2,3-dihydro-1H-indol-7-yl]-amide]
12 | 191 to 192 °C | COc1ccc(S(=O)(=O)N2CCc3cc(Br)cc(NC(=O)c4ccncc4)c32)cc1 [compound 37, N-[5-Bromo-1-(4-methoxy-benzenesulfonyl)-2,3-dihydro-1H-indol-7-yl]-isonicotinamide]
13 | 199 to 201 °C | COc1ccc(S(=O)(=O)N2CCc3cccc(NC(=O)N(C)c4ccccc4)c32)cc1 [compound 33, 3-[1-(4-Methoxy-benzenesulfonyl)-2,3-dihydro-1H-indol-7-yl]-1-methyl-1-phenyl-urea]
14 | 162 to 163 °C | COc1ccc(S(=O)(=O)N2CCc3cccc(NCc4ccccc4)c32)cc1 [compound 34, Benzyl-[1-(4-methoxy-benzenesulfonyl)-2,3-dihydro-1H-indol-7-yl]-amine]
15 | 154 to 155 °C | COc1ccc(S(=O)(=O)N2CCc3cccc(NC(C)=O)c32)cc1 [compound 35, N-[1-(4-Methoxy-benzenesulfonyl)-2,3-dihydro-1H-indol-7-yl]acetamide]
